Columns and labels:
Type in all cases: biochemical, Medicago truncatula
ANS = assay: Enzyme assay with recombinant ANS protein, HPLC detection of cyanidin; conditions: 50 μg recombinant protein, 1 h at 30° C., HPLC at 530 nm; flavan-3-ols at 200 μM
Description: (§1) The full length ANS and LDOX cDNAs were cloned into pMal-c5x vector (New England Biolabs) at the SalI and BamHI site and BamHI and EcoRI site, respectively. The expression constructs were transformed into E. coli strain NEB® Express Competent E. coli (New England Biolabs). Transformed bacteria were grown in LB medium supplemented with 0.2% glucose to OD 600 of 0.5, and IPTG was added at 0.3 mM to induce protein expression. Bacteria were harvested after 4 h induction. ANS and LDOX proteins were purified with amylose resin (NEB, E8021) following the manufacturer's protocol. Briefly, bacteria were lysed by sonication at 4° C. in extraction buffer (20 mM Tris pH 7.0, 200 mM NaCl, 1 mM DTT). The bacterial lysates were centrifuged at 12,000 g for 15 min at 4° C. The supernatants were loaded on amylose resin which was washed with wash buffer (extraction buffer). Finally, proteins were eluted by elution buffer (20 mM Tris pH 7.0, 200 mM NaCl, 1 mM DTT, 10 mM maltose). Purified proteins were concentrated with an Amicon® Ultra-4 Centrifugal Filter (Millipore) and aliquoted to store at −80° C.
(§2) It was previously reported that ANS can convert leucocyanidin to cyanidin. To confirm this, separate enzyme reactions were set up for ANS and LDOX by incubating with leucocyanidin according to Tanner et al. The enzyme reaction was prepared in 100 μL volume including 20 mM potassium phosphate buffer (pH 7.0), 1 mM 2-oxoglutarate, 0.4 mM ammonium iron(II) sulfate, 4 mM sodium ascorbate, 100 mM NaCl, 10 mM maltose, 5 mM DTT and 50 μg recombinant proteins. The reactions were carried out for 1 h at 30° C. and terminated by addition of 1 μL 36% HCl and 10 μL 100% methanol. The reaction mixture was centrifuged for 5 min at 13,000 rpm at 4° C. and analyzed by HPLC. All reverse-phase HPLC analyses were performed on an Agilent HP1100 HPLC using the following gradient: solvent A (1% phosphoric acid) and B (acetonitrile) at 1 ml/min flow rate: 0-5 min, 5% B; 5-10 min, 5-10% B; 10-25 min, 10-17% B; 25-30 min, 17-23% B; 30-65 min, 23-50% B; 65-79 min, 50-100% B; 79-80 min, 100-5% B. Data were collected at 280 and 530 nm for flavonoids and anthocyanidins, respectively. Identifications were based on chromatographic behavior and UV spectra compared with those of authentic standards.
(§3) Since catechin was highly accumulated in the ldox mutant, it was tested whether ANS or LDOX protein can react with (+)-catechin (2R, 3S), which is stated as a naturally synthesized monomeric unit of PAs. The same enzyme reaction was set up but using 200 μM of (+)-catechin as substrate instead of leucocyanidin. Reactions without 2-oxoglutarate (-oxo) were run as negative controls. […] The enzyme reaction was performed with (+)-catechin as substrate and recombinant ANS or LDOX protein. Arrowhead indicates the peak for cyanidin (Cy) standard. Reactions without 2-oxoglutarate were run as negative controls and are denoted as -oxo. […] The enzyme assay was performed with (−)-catechin, (−)-epicatechin or (+)-epicatechin as substrate and purified recombinant ANS or LDOX protein. The substrate in each reaction is indicated. (−)-cat, (−)-catechin; (−)-epi, (−)-epicatechin; (+)-epi, (+)-epicatechin. […] The gray arrow denotes the catalyzed reaction in vitro. The proteins used are indicated in each chromatogram.

LDOX = assay: Enzyme assay with recombinant LDOX protein, HPLC detection of cyanidin; conditions: 50 μg recombinant protein, 1 h at 30° C., HPLC at 530 nm; flavan-3-ols at 200 μM
Description: as §1, §2, §3

ANS and ANR proteins = assay: Combined enzyme reaction of ANS with ANR; conditions: 200 μM substrate, 10 mM NADPH, 50 μg ANS and ANR proteins, HPLC at 280 nm
Description: as §2
(§4) Next, the combined reaction of ANS or LDOX with ANR was tested to check if (+)-catechin can be converted to (−)-epicatechin, which is the almost exclusive monomer unit of PA polymers in Medicago truncatula. […]

LDOX and ANR proteins = assay: Combined enzyme reaction of LDOX with ANR; conditions: 200 μM substrate, 10 mM NADPH, 50 μg LDOX and ANR proteins, HPLC at 280 nm
Description: as §2, §4

in vitro conversion of substrate to cyanidin by ANS (ANS)	in vitro conversion of substrate to cyanidin by LDOX (LDOX)	(+)-catechin converted to epicatechin (ANS and ANR proteins)	(+)-catechin converted to epicatechin (LDOX and ANR proteins)	Compound
No cyanidin generation was detected	No cyanidin generation was detected	–	–	Oc1cc(O)c2c(c1)O[C@@H](c1ccc(O)c(O)c1)[C@@H](O)C2 [(+)-epicatechin]
No cyanidin generation was detected	No cyanidin generation was detected	–	–	Oc1cc(O)c2c(c1)O[C@H](c1ccc(O)c(O)c1)[C@H](O)C2 [(−)-epicatechin]
No cyanidin generation was detected	No cyanidin generation was detected	–	–	(−)-catechin

Compound	in vitro conversion of substrate to cyanidin by ANS (ANS)	in vitro conversion of substrate to cyanidin by LDOX (LDOX)	(+)-catechin converted to epicatechin (ANS and ANR proteins)	(+)-catechin converted to epicatechin (LDOX and ANR proteins)
Oc1cc(O)c2c(c1)O[C@H](c1ccc(O)c(O)c1)[C@@H](O)C2 [(+)-catechin]	catalyze the in vitro conversion of (+)-catechin to cyanidin	catalyze the in vitro conversion of (+)-catechin to cyanidin	more than 70%	more than 70%
Oc1cc(O)c2c(c1)OC(c1ccc(O)c(O)c1)C(O)C2O (stereo not drawn) [leucocyanidin]	catalyzed in vitro conversion of leucocyanidin to cyanidin	catalyzed in vitro conversion of leucocyanidin to cyanidin	–	–
